Values after ≈ are worked out from the molar mass of the structure shown. Counter-ions that a name gives are not always drawn.
How the values were obtained:
Proteus vulgaris CN-329 = experiment: Antibacterial activity in vitro, minimal inhibitory concentration (two-fold agar dilution); type: cell-based; settings: CN329; Proteus vulgaris CN-329, agar dilution
Procedure: (§1) Antibacterial activity in vitro : A solution of the test compound in 0.01N-aqueous sodium hydrogen carbonate was applied to an agar plate by two-fold dilution method and the minimal inhibitory concentrations against Gram-negative and Gram-positive bacteria were measured according to the standard method of the Japan Society of Chemotherapy.

Escherichia coli EC-14 = experiment: as above; type: cell-based; settings: EC14; Escherichia coli EC-14, agar dilution
Procedure: as §1

Proteus mirabilis PR4 = experiment: as above; type: cell-based
Procedure: as §1

[1] = tested on: Serratia marcescens A13880; experiment: as above; type: cell-based
Procedure: as §1

[2] = tested on: Pseudomonas aeruginosa A25619; experiment: as above; type: cell-based
Procedure: as §1

[3] = Blood level at 15 minutes after oral administration to mice; type: in vivo, mouse; settings: 40 mg/kg oral; for concentration at 0.25 h: mouse, blood
Procedure: The in vivo absorption rate of the compound I after oral administration was determined by administering a compound of the invention to mouse and measuring the blood level.
Blood level at 15 minutes after oral administration : A test compound (40 mg/kg) in a 5% suspension of arabic gum was administered to a mouse (weighing ca. 25 g) through an enteral tube. After 15 minutes, the blood in the heart cavity was taken and the concentration of the test compound was measured by the band culture method using Escherichia coli 7437.

[4] = tested on: Staphylococcus aureus Smith; experiment: Antibacterial activity in vitro, minimal inhibitory concentration (two-fold agar dilution); type: cell-based
Procedure: as §1

[5] = tested on: Staphylococcus aureus 209P JC-1; experiment: as above; type: cell-based; settings: Staphylococcus aureus 209P JC-1, agar dilution
Procedure: as §1

Escherichia coli SR377 = experiment: as above; type: cell-based
Procedure: as §1

Morgania morganii SR9 = experiment: as above; type: cell-based
Procedure: as §1

[6] = tested on: Enterobacter cloacae SR233; experiment: as above; type: cell-based
Procedure: as §1

Escherichia coli 7437 = experiment: as above; type: cell-based; settings: Escherichia coli 7437, agar dilution
Procedure: as §1

[7] = tested on: Serratia marcescens SR1005; experiment: as above; type: cell-based
Procedure: as §1

[8] = tested on: Haemophilus influenzae SR3508; experiment: as above; type: cell-based
Procedure: as §1

[9] = tested on: Klebsiella pneumoniae SR1; experiment: as above; type: cell-based; settings: unit cut off in print
Procedure: as §1

Compound: C[C@H](O/N=C(\C(=O)N[C@@H]1C(=O)N2C(C(=O)O)=C(SCSc3c[nH]nn3)CS[C@H]12)c1csc(N)n1)C(=O)O [Example 7-14, 7μ-(Z)-2-(2-aminothiazol-4-yl)-2-[(S)-1-sodiooxycarbonylethoxyimino]acetamido}-3-(1,2,3-triazol-4-ylthiomethylthio)-3-cephem-4-carboxylic acid sodium salt]
- MIC (Proteus vulgaris CN-329): 0.006 µg/mL
- MIC (Escherichia coli EC-14): 0.2 µg/mL
- MIC (Proteus mirabilis PR4): 0.01 µg/mL

Compound: CC(C)(O/N=C(\C(=O)N[C@@H]1C(=O)N2C(C(=O)O)=C(SCSc3c[nH]nn3)CS[C@H]12)c1csc(N)n1)C(=O)O [Example 7-16, 7μ-[(Z)-2-(2-aminothiazol-4-yl) -2-(1-carboxy-1-methylethoxyimino)acetamido]-3-(1,2,3-triazol-4-ylthiomethylthio)-3-cephem-4-carboxylic acid]
- MIC [1]: 0.8 µg/mL (≈ 1.33 µM)
- MIC [2]: 1.6 µg/mL (≈ 2.66 µM)
- MIC (Proteus mirabilis PR4): 0.01 µg/mL (≈ 0.0166 µM)

Compound: O=C(Cc1ccccc1)N[C@@H]1C(=O)N2C(C(=O)O)=C(SCSc3c[nH]nn3)CS[C@H]12 [Example 7-2, 7β-phenylacetylamino-3-(1,2,3-triazol-4-yl) thiomethylthio-3-cephem-4-carboxylic acid]
- concentration at 0.25 h [3]: 15000 ng/mL
- MIC [4]: 0.05 µg/mL (≈ 0.108 µM)
- MIC [5]: 0.05 µg/mL (≈ 0.108 µM)

Compound: Nc1nc(/C(=N/O)C(=O)N[C@@H]2C(=O)N3C(C(=O)O)=C(SCSc4nncs4)CS[C@H]23)cs1 [Example 7-25, 7μ-[(Z)-2-(2-aminothiazol-4-yl)-2-hydroxyiminoacetamido]-3-(1,3,4-thiadiazol-2-ylthiomethylthio)-3-cephem-4-carboxylic acid]
- MIC (Escherichia coli SR377): 0.4 µg/mL (≈ 0.752 µM)
- MIC (Morgania morganii SR9): 0.1 µg/mL (≈ 0.188 µM)
- MIC [6]: 0.4 µg/mL (≈ 0.752 µM)

Compound: Nc1nc(/C(=N/O)C(=O)N[C@@H]2C(=O)N3C(C(=O)O)=C(SCSc4nn[nH]n4)CS[C@H]23)cs1 [Example 7-27, 7μ-[(Z) 2-(2-aminothiazol-4-yl)-2-hydroxyiminoacetyl]amino-3-(tetrazol-5-yl)thiomethylthio-3-cephem-4-carboxylic acid]
- MIC (Escherichia coli 7437): 0.01 µg/mL (≈ 0.0194 µM)

Compound: CO/N=C(\C(=O)N[C@@H]1C(=O)N2C(C(=O)O)=C(SCSc3c[nH]nn3)CS[C@H]12)c1csc(N)n1 [Example 7-6, 7β-(Z)-2-(2-aminothiazol-4-yl)-2-methoxyiminoacetyl]amino-3-(1,2,3-triazol-4-yl) thiomethylthio-3-cephem-4-carboxylic acid sodium salt]
- concentration at 0.25 h [3]: 15000 ng/mL
- MIC (Proteus vulgaris CN-329): 0.02 µg/mL
- MIC (Morgania morganii SR9): 0.1 µg/mL

Compound: Nc1nc(CC(=O)N[C@@H]2C(=O)N3C(C(=O)O)=C(SCSc4c[nH]nn4)CS[C@H]23)cs1 [Example 7-10, 7β-[2-(2-aminothiazol-4yl)acetamido]-3-(1,2,3-triazol-4-ylthiomethylthio)-3-cephem-4-carboxylic acid]
- concentration at 0.25 h [3]: 17100 ng/mL
- MIC (Proteus vulgaris CN-329): 0.8 µg/mL (≈ 1.65 µM)
- MIC [4]: 0.1 µg/mL (≈ 0.206 µM)
- MIC (Escherichia coli EC-14): 0.8 µg/mL (≈ 1.65 µM)

Compound: Nc1nc(/C(=N/O)C(=O)N[C@@H]2C(=O)N3C(C(=O)O)=C(SCSc4cnns4)CS[C@H]23)cs1 [Example 7-24, 7μ-[(Z)-2-(2-aminothiazol-4-yl)-2-hydroxyiminoacetyl]amino-3-(1,2,3-thiadiazol-5-yl) thiomethylthio-3-cephem-4-carboxylic acid]
- MIC (Escherichia coli SR377): 0.4 µg/mL (≈ 0.752 µM)
- MIC (Escherichia coli 7437): 0.01 µg/mL (≈ 0.0188 µM)
- MIC [6]: 0.4 µg/mL (≈ 0.752 µM)

Compound: Nc1nc(/C(=N/O)C(=O)N[C@@H]2C(=O)N3C(C(=O)O)=C(SCSc4ccccn4)CS[C@H]23)cs1 [Example 7-30]
- concentration at 0.25 h [3]: 18700 ng/mL
- MIC (Escherichia coli 7437): 0.01 µg/mL (≈ 0.0191 µM)

Compound: Nc1nc(/C(=N/O)C(=O)N[C@@H]2C(=O)N3C(C(=O)O)=C(SCSc4c[nH]nn4)CS[C@H]23)cs1 [Example 7-5]
- blood level on oral administration [3]: 29.6 µg/mL
- concentration at 0.25 h [3]: 29600 ng/mL
- MIC (Escherichia coli 7437): 0.02 µg/mL (≈ 0.0389 µM)
- MIC [6]: 0.8 µg/mL (≈ 1.55 µM)

Compound: Cc1nnc(SCSC2=C(C(=O)O)N3C(=O)[C@@H](NC(=O)/C(=N\O)c4csc(N)n4)[C@H]3SC2)s1 [Example 7-26, 7μ-[(Z)-2-(2-aminothiazol-4-yl)-2-hydroxyiminoacetamido]-3-(2-methyl-1,3,4-thiadiazol-5-ylthiomethylthio)-3-cephem-4-carboxylic acid]
- MIC (Escherichia coli SR377): 0.8 µg/mL (≈ 1.47 µM)
- MIC (Morgania morganii SR9): 0.05 µg/mL (≈ 0.0916 µM)
- MIC (Escherichia coli 7437): 0.02 µg/mL (≈ 0.0367 µM)
- MIC [6]: 0.8 µg/mL (≈ 1.47 µM)

Compound: C=CCO/N=C(\C(=O)N[C@@H]1C(=O)N2C(C(=O)O)=C(SCSc3c[nH]nn3)CS[C@H]12)c1csc(N)n1 [Example 7-8, 7β-[(Z)-2-(2-aminothiazol-4-yl)-2-(2-propenyloxyimino)acetamido]-3-(1,2,3-triazol-4-ylthiomethylthio) -3-cephem-4-carboxylic acid]
- MIC [6]: 0.8 µg/mL (≈ 1.44 µM)
- MIC (Escherichia coli EC-14): 0.4 µg/mL (≈ 0.721 µM)

Compound: Cn1nnnc1SCSC1=C(C(=O)O)N2C(=O)[C@@H](NC(=O)/C(=N\O)c3csc(N)n3)[C@H]2SC1 [Example 7-28, 7μ-[(Z)-2-(2-aminothiazol-4-yl)-2-hydroxyiminoacetyl]amino-3-(1-methyl-5-tetrazolyl) thiomethylthio-3-cephem-4-carboxylic acid]
- MIC (Escherichia coli SR377): 0.4 µg/mL (≈ 0.755 µM)
- MIC (Morgania morganii SR9): 0.1 µg/mL (≈ 0.189 µM)
- MIC (Escherichia coli 7437): 0.02 µg/mL (≈ 0.0378 µM)
- MIC [6]: 0.8 µg/mL (≈ 1.51 µM)

Compound: Cn1nncc1SCSC1=C(C(=O)O)N2C(=O)[C@@H](NC(=O)/C(=N\O)c3csc(N)n3)[C@H]2SC1 [Example 7-19]
- MIC (Escherichia coli 7437): 0.02 µg/mL (≈ 0.0378 µM)
- MIC [6]: 0.4 µg/mL (≈ 0.757 µM)

Compound: Nc1nc(C(=O)C(=O)N[C@@H]2C(=O)N3C(C(=O)O)=C(SCSc4c[nH]nn4)CS[C@H]23)cs1 [Example 7-11, 7β-[2-(2-aminothiazol-4-yl)glyoxylylamido]-3-(1,2,3-triazol-4-ylthiomethylthio) -3-cephem-4-carboxylic acid]
- MIC (Escherichia coli EC-14): 0.4 µg/mL (≈ 0.801 µM)

Compound: Nc1nc(/C(=N/O)C(=O)N[C@@H]2C(=O)N3C(C(=O)O)=C(SCSCc4c[nH]nn4)CS[C@H]23)cs1 [Example 6-1, 7β-[(Z)-2-(2-aminothiazol-4-yl) -2-hydroxyiminoacetamido]-3-(1,2,3-triazol-4-ylmethylthiomethylthio) -3-cephem-4-carboxylic acid]
- concentration at 0.25 h [3]: 12100 ng/mL
- MIC (Morgania morganii SR9): 0.1 µg/mL (≈ 0.189 µM)
- MIC [6]: 0.8 µg/mL (≈ 1.51 µM)

Compound: Nc1nc(/C(=N/OCC(=O)O)C(=O)N[C@@H]2C(=O)N3C(C(=O)O)=C(SCSc4c[nH]nn4)CS[C@H]23)cs1 [Example 7-13, 7μ-[(Z)-2-(2-aminothiazol-4-yl)-2-(sodiooxycarbonylmethoxyimino)acetamido]-3-(1,2,3-triazol-4-ylthiomethylthio) -3-cephem-4-carboxylic acid sodium salt]
- MIC (Proteus vulgaris CN-329): 0.006 µg/mL
- MIC (Proteus mirabilis PR4): 0.006 µg/mL

Compound: O=C(O)C1=C(SCSc2c[nH]nn2)CS[C@@H]2[C@H](NC(=O)[C@H](O)c3ccccc3)C(=O)N12 [Example 7-3, 7β-D-mandelamido-3-(1,2,3-triazol-4-ylthiomethylthio)-3-cephem-4-carboxylic acid]
- concentration at 0.25 h [3]: 18500 ng/mL

Compound: C=C(O/N=C(\C(=O)N[C@@H]1C(=O)N2C(C(=O)O)=C(SCSc3c[nH]nn3)CS[C@H]12)c1csc(N)n1)C(=O)O [Example 7-15, 7μ-[(Z)-2-(2-aminothiazol-4-yl)-2-(1-carboxyvinyloxyimino)acetamido]-3-(1,2,3-triazol-4-ylthiomethylthio)-3-cephem-4-carboxylic acid]
- MIC [7]: 0.8 µg/mL (≈ 1.37 µM)
- MIC (Proteus mirabilis PR4): < 0.003 µg/mL

Compound: O=C(CSC(F)F)N[C@@H]1C(=O)N2C(C(=O)O)=C(SCSc3c[nH]nn3)CS[C@H]12 [Example 7-1, 7β-difluoromethylthioacetamido-3-(1,2,3-triazol-4-ylthiomethylthio)-3-cephem-4-carboxylic acid]
- concentration at 0.25 h [3]: 28000 ng/mL
- MIC [4]: 0.1 µg/mL (≈ 0.213 µM)

Compound: Cn1cc(SCSC2=C(C(=O)O)N3C(=O)[C@@H](NC(=O)/C(=N\O)c4csc(N)n4)[C@H]3SC2)nn1 [Example 7-17, 7μ-[(Z)-2-(2-aminothiazol-4-yl) -2-hydroxyiminoacetamido]-3-(1-methyl-1,2,3-triazol-4-yl)thiomethylthio-3-cephem-4-carboxylic acid]
- MIC [8]: 0.1 µg/mL (≈ 0.189 µM)
- MIC (Escherichia coli 7437): 0.02 µg/mL (≈ 0.0378 µM)
- MIC [6]: 0.8 µg/mL (≈ 1.51 µM)

Compound: Cn1ncc(SCSC2=C(C(=O)O)N3C(=O)[C@@H](NC(=O)/C(=N\O)c4csc(N)n4)[C@H]3SC2)n1 [Example 7-18, 7μ-[(Z)-2-(2-aminothiazol-4-yl)-2-hydroxyiminoacetamido]-3-(2-methyl-1,2,3-triazol-4-yl)thiomethylthio-3 cephem-4-carboxylic acid]
- MIC (Escherichia coli 7437): 0.02 µg/mL (≈ 0.0378 µM)

Compound: Nc1nc(/C(=N/OC2CCCC2)C(=O)N[C@@H]2C(=O)N3C(C(=O)O)=C(SCSc4c[nH]nn4)CS[C@H]23)cs1 [Example 7-7, 7β-[(Z)-2-(2-aminothiazol-4-yl)-2-cyclopentyloxyiminoacetamido]-3-(1,2,3-triazol-4-ylthiomethylthio)-3-cephem-4-carboxylic acid]
- MIC [2]: 0.8 µg/mL (≈ 1.37 µM)
- MIC (Escherichia coli EC-14): 0.8 µg/mL (≈ 1.37 µM)

Compound: Nc1nc(/C(=N/O)C(=O)N[C@@H]2C(=O)N3C(C(=O)O)=C(SCSc4nc[nH]n4)CS[C@H]23)cs1 [Example 7-20, 7μ-[(Z)-2-(2-aminothiazol-4-yl)-2-hydroxyiminoacetamido]-3-(1,2,4-triazol-3-yl)thiomethylthio-3-cephem-4-carboxylic acid]
- MIC (Escherichia coli 7437): 0.02 µg/mL (≈ 0.0389 µM)
- MIC [6]: 0.8 µg/mL (≈ 1.55 µM)
- MIC [9]: 0.05 µg/mL (≈ 0.0972 µM)
